Results published in patent publication US20080014278A1, “METAL-CONTAINING FORMULATIONS AND METHODS OF USE” (priority 2006, published 2008).

Legend:
Staphylococcus aureus = test: MIC assay (microdilution); type: cell-based
[1] = test system: Staphylococcus epidermidis; test: MIC assay (microdilution); type: cell-based
Streptococcus pyogenes = test: MIC assay (microdilution); type: cell-based
Streptococcus pneumoniae = test: MIC assay (microdilution); type: cell-based; details: lactate solutions, nanocrystalline silver: range for 12 samples
Pseudomonas aeruginosa = test: MIC assay (microdilution); type: cell-based
Burkholderia multivorans = test: MIC assay (microdilution); type: cell-based
Burkholderia dolosa = test: MIC assay (microdilution); type: cell-based
Citrobacter freundii = test: MIC assay (microdilution); type: cell-based; details: C. freundii NP410
Enterobacter cloacae = test: MIC assay (microdilution); type: cell-based; details: Enterobacter cloacae
Klebsiella pneumoniae = test: MIC assay (microdilution); type: cell-based
Proteus mirabilis = test: MIC assay (microdilution); type: cell-based; details: Prot. mirabilis NP405
Serratia marcescens = test: MIC assay (microdilution); type: cell-based
Escherichia coli = test: MIC assay (microdilution); type: cell-based
[2] = test system: Mycobacterium tuberculosis H37Ra; type: cell-based
Staph. aureus = test: Minimal bactericidal concentration (MBC) assay; type: cell-based, Staphylococcus aureus
Procedure: (§1) Minimal bactericidal concentration (MBC) assay—Overnight-grown MIC plates, prepared as described in Example 16, were evaluated to determine the MIC. Culture was then sampled from wells at and near the MIC using sterile inoculating loops, and transferred to fresh MHA plates to determine if viable bacteria remained. […] The MBC was determined as the well in the MIC plate which contained the lowest concentration of silver yielding no bacterial growth on the MHA plate.

Ps. aeruginosa = test: Minimal bactericidal concentration (MBC) assay; type: cell-based, Pseudomonas aeruginosa
Procedure: as §1

Strep. pyogenes = test: Minimal bactericidal concentration (MBC) assay; type: cell-based, Streptococcus pyogenes
Procedure: as §1

K. pneumoniae = test: Minimal bactericidal concentration (MBC) assay; type: cell-based, Klebsiella pneumoniae
Procedure: as §1

Ser. marcescens = test: Minimal bactericidal concentration (MBC) assay; type: cell-based, Serratia marcescens
Procedure: as §1

E. coli = test: Minimal bactericidal concentration (MBC) assay; type: cell-based, Escherichia coli
Procedure: as §1

Prot. mirabilis = test: Minimal bactericidal concentration (MBC) assay; type: cell-based, Proteus mirabilis; details: Prot. mirabilis NP405
Procedure: as §1

C. freundii = test: Minimal bactericidal concentration (MBC) assay; type: cell-based, Citrobacter freundii; details: C. freundii NP410
Procedure: as §1

B. multivorans = test: Minimal bactericidal concentration (MBC) assay; type: cell-based, Burkholderia multivorans
Procedure: as §1

B dolosa = test: Minimal bactericidal concentration (MBC) assay; type: cell-based, Burkholderia dolosa
Procedure: as §1

Staph epidermidis = test: Minimal bactericidal concentration (MBC) assay; type: cell-based, Staphylococcus epidermidis
Procedure: as §1

[3] = K. pneumoniae NP403, second entry
[4] = Ser. marcescens NP402, second entry
[5] = Ser. marcescens NP408, second entry

O=[N+]([O-])[O-].[Ag+] [AgNO3, silver nitrate]
MIC (Staphylococcus aureus; Staph aureus NP101, Lactate): 9 ppm
MIC (Staphylococcus aureus; Staph aureus NP101, Water/Lecithin): 11 ppm
MIC (Staphylococcus aureus; Staph aureus NP101, Water/PVA): 11 ppm
MIC (Staphylococcus aureus; Staph aureus NP102, Lactate): 9 ppm
MIC (Staphylococcus aureus; Staph aureus NP102, Water/Lecithin): 11 ppm
MIC (Staphylococcus aureus; Staph aureus NP102, Water/PVA): 11 ppm
MIC (Staphylococcus aureus; Staph aureus NP103, Lactate): 9 ppm
MIC (Staphylococcus aureus; Staph aureus NP103, Water/Lecithin): 11 ppm
MIC (Staphylococcus aureus; Staph aureus NP103, Water/PVA): 11 ppm
MIC (Staphylococcus aureus; Staph. aureus 6538): 6 parts silver per million
MIC (Staphylococcus aureus; Staph. aureus 700699): 3 parts silver per million
MIC (Staphylococcus aureus; Staph. aureus NP101): 6 parts silver per million
MIC (Staphylococcus aureus; Staph. aureus NP102): 6 parts silver per million
MIC (Staphylococcus aureus; Staph. aureus NP103): 6 parts silver per million
MIC (Staphylococcus aureus; lactate solutions, S. aureus (ATCC), nanocrystalline silver: range for 12 samples): 11 µg/mL
MIC (Staphylococcus aureus; lactate solutions, S. aureus (clin.), nanocrystalline silver: range for 12 samples): 5 µg/mL
MIC ([1]; Staph epidermidis 12228): 3 parts silver per million
MIC ([1]; Staph epidermidis NP136): 3 parts silver per million
MIC ([1]; lactate solutions, S. epiderm (ATCC), nanocrystalline silver: range for 12 samples): 3 µg/mL
MIC (Streptococcus pyogenes; Strep. pyogenes NP303): 3 parts silver per million
MIC (Streptococcus pyogenes; Strep. pyogenes NP304): 6 parts silver per million
MIC (Streptococcus pyogenes; Strep. pyogenes NP306): 6 parts silver per million
MIC (Streptococcus pyogenes; lactate solutions, S. pyog (clin. 303), nanocrystalline silver: range for 12 samples): 3 µg/mL
MIC (Streptococcus pyogenes; lactate solutions, S. pyog (clin. 304), nanocrystalline silver: range for 12 samples): 5 µg/mL
MIC (Streptococcus pneumoniae; S. pneumo (clin 314)): 11 µg/mL
MIC (Streptococcus pneumoniae; S. pneumo (clin 315)): 21 µg/mL
MIC (Pseudomonas aeruginosa; P. aeruginosa NP212, formulation type Lactate): 2 ppm
MIC (Pseudomonas aeruginosa; P. aeruginosa NP212, formulation type Water/Lecithin): 3 ppm
MIC (Pseudomonas aeruginosa; P. aeruginosa NP212, formulation type Water/PVA): 3 ppm
MIC (Pseudomonas aeruginosa; P. aeruginosa NP213, Lactate): 1 ppm
MIC (Pseudomonas aeruginosa; P. aeruginosa NP213, Water/Lecithin): 1 ppm
MIC (Pseudomonas aeruginosa; P. aeruginosa NP213, Water/PVA): 1 ppm
MIC (Pseudomonas aeruginosa; P. aeruginosa NP214, Lactate): 1 ppm
MIC (Pseudomonas aeruginosa; P. aeruginosa NP214, Water/Lecithin): 1 ppm
MIC (Pseudomonas aeruginosa; P. aeruginosa NP214, Water/PVA): 3 ppm
MIC (Pseudomonas aeruginosa; Ps. aeruginosa 9027): 1 parts silver per million
MIC (Pseudomonas aeruginosa; Ps. aeruginosa 27317): 2 parts silver per million
MIC (Pseudomonas aeruginosa; Ps. aeruginosa NP201): 1 parts silver per million
MIC (Pseudomonas aeruginosa; Ps. aeruginosa NP204): 1 parts silver per million
MIC (Pseudomonas aeruginosa; Ps. aeruginosa NP206): 1 parts silver per million
MIC (Pseudomonas aeruginosa; lactate solutions, P. aerug (ATCC), nanocrystalline silver: range for 12 samples): 3 µg/mL
MIC (Pseudomonas aeruginosa; lactate solutions, P. aerug. (clin.), nanocrystalline silver: range for 12 samples): 3 µg/mL
MIC (Burkholderia multivorans; B. multivorans B1): 3 parts silver per million
MIC (Burkholderia multivorans; B. multivorans B2): 3 parts silver per million
MIC (Burkholderia multivorans; B. multivorans B4): 2 parts silver per million
MIC (Burkholderia dolosa; B dolosa A3): 2 parts silver per million
MIC (Burkholderia dolosa; B dolosa A4): 2 parts silver per million
MIC (Citrobacter freundii): 3 parts silver per million
MIC (Enterobacter cloacae; aerobic +): 13 µg/mL
MIC (Enterobacter cloacae; aerobic − (anaerobic)): 25 µg/mL
MIC (Klebsiella pneumoniae; K. pneumoniae NP401): 3 parts silver per million
MIC (Klebsiella pneumoniae; K. pneumoniae NP403): 6 parts silver per million
MIC (Klebsiella pneumoniae; [3]): 6 parts silver per million
MIC (Klebsiella pneumoniae; K. pneumoniae NP406): 1 parts silver per million
MIC (Klebsiella pneumoniae; Klebsiella pneumoniae, aerobic +): 3 µg/mL
MIC (Klebsiella pneumoniae; Klebsiella pneumoniae, aerobic − (anaerobic)): 3 µg/mL
MIC (Proteus mirabilis): 6 parts silver per million
MIC (Serratia marcescens; Ser. marcescens NP402): 6 parts silver per million
MIC (Serratia marcescens; [4]): 6 parts silver per million
MIC (Serratia marcescens; Ser. marcescens NP408): 6 parts silver per million
MIC (Serratia marcescens; [5]): 11 parts silver per million
MIC (Serratia marcescens; Serratia marcescens, aerobic +): 6 µg/mL
MIC (Serratia marcescens; Serratia marcescens, aerobic − (anaerobic)): 13 µg/mL
MIC (Escherichia coli; E. coli 8739): 0.4 parts silver per million
MIC (Escherichia coli; E. coli 43745): 1 parts silver per million
MIC (Escherichia coli; E. coli NP412): 1 parts silver per million
MIC (Escherichia coli; lactate solutions, E. coli (ATCC), nanocrystalline silver: range for 12 samples): 3 µg/mL
MIC [2]: 2.5 μg/ml silver
MBC (Staph. aureus; Staph. aureus 6538): 6 parts silver per million
MBC (Staph. aureus; Staph. aureus 700699): 6 parts silver per million
MBC (Staph. aureus; Staph. aureus NP101): 11 parts silver per million
MBC (Staph. aureus; Staph. aureus NP102): 6 parts silver per million
MBC (Staph. aureus; Staph. aureus NP103): 6 parts silver per million
MBC (Ps. aeruginosa; Ps. aeruginosa 27317): 3 parts silver per million
MBC (Ps. aeruginosa; Ps. aeruginosa NP201): 3 parts silver per million
MBC (Ps. aeruginosa; Ps. aeruginosa NP204): 3 parts silver per million
MBC (Ps. aeruginosa; Ps. aeruginosa NP206): 1 parts silver per million
MBC (Strep. pyogenes; Strep. pyogenes NP303): 10 parts silver per million
MBC (Strep. pyogenes; Strep. pyogenes NP304): 21 parts silver per million
MBC (Strep. pyogenes; Strep. pyogenes NP306): 21 parts silver per million
MBC (K. pneumoniae; K. pneumoniae NP401): 3 parts silver per million
MBC (K. pneumoniae; K. pneumoniae NP403): 6 parts silver per million
MBC (K. pneumoniae; [3]): 3 parts silver per million
MBC (K. pneumoniae; K. pneumoniae NP406): 1 parts silver per million
MBC (Ser. marcescens; Ser. marcescens NP402): 6 parts silver per million
MBC (Ser. marcescens; [4]): 6 parts silver per million
MBC (Ser. marcescens; Ser. marcescens NP408): 6 parts silver per million
MBC (Ser. marcescens; [5]): 11 parts silver per million
MBC (E. coli; E. coli 8739): 0.4 parts silver per million
MBC (E. coli; E. coli 43745): 0.4 parts silver per million
MBC (E. coli; E. coli NP412): 1 parts silver per million
MBC (Prot. mirabilis): 13 parts silver per million
MBC (C. freundii): 3 parts silver per million
MBC (B. multivorans; B. multivorans B1): 3 parts silver per million
MBC (B. multivorans; B. multivorans B2): 3 parts silver per million
MBC (B. multivorans; B. multivorans B4): 3 parts silver per million
MBC (B dolosa; B dolosa A3): 3 parts silver per million
MBC (B dolosa; B dolosa A4): 2 parts silver per million
MBC (Staph epidermidis; Staph epidermidis 12228): 3 parts silver per million
MBC (Staph epidermidis; Staph epidermidis NP136): 3 parts silver per million
